According to PubChem BioAssay AID330 (DTP/NCI, 2004):
“And” between values parts separate entries of the source, which are not always exact repeats. Equal values may be shown once. Inconclusive results and toxic doses are left out. Rule for the calls: active = survival T/C of 150% or more; inactive = T/C below 125% in these data.

Test system: P388 leukemia ip, CD2F1 mice, survival T/C
Test: NCI In Vivo Anticancer Drug Screen. Data for tumor model P388 Leukemia (intraperitoneal) in CD2F1 (CDF1) mice
Settings: endpoint: median survival time, higher = longer survival
Outline: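 Mice carrying the transplanted tumor received test compound or vehicle. Survival was recorded in each group, and the value is the treated-group measurement divided by that of the vehicle-treated control group.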

[1] = dose: 100.0 mg/kg/injection, schedule: Q04DX003 (ip), vehicle: saline with Tween-80
[2] = dose: 200.0 mg/kg/injection, schedule: Q04DX003 (ip), vehicle: saline with Tween-80
[3] = dose: 400.0 mg/kg/injection, schedule: Q04DX003 (ip), vehicle: saline with Tween-80
[4] = dose: 50.0 mg/kg/injection, schedule: Q01DX009 (ip), vehicle: saline with Tween-80
[5] = dose: 100.0 mg/kg/injection, schedule: Q01DX009 (ip), vehicle: saline with Tween-80
[6] = dose: 60.0 mg/kg/injection, schedule: Q01DX005 (ip), vehicle: saline with Tween-80
[7] = dose: 120.0 mg/kg/injection, schedule: Q01DX005 (ip), vehicle: saline with Tween-80
[8] = dose: 240.0 mg/kg/injection, schedule: Q01DX005 (ip), vehicle: saline with Tween-80
[9] = dose: 50.0 mg/kg/injection, schedule: Q01DX005 (ip), vehicle: saline with Tween-80
[10] = dose: 100.0 mg/kg/injection, schedule: Q01DX005 (ip), vehicle: saline with Tween-80
[11] = dose: 200.0 mg/kg/injection, schedule: Q01DX005 (ip), vehicle: saline with Tween-80

Measured: T/C

Cc1cc2c(cc1C)C(=O)C(N1CCOCC1)CCO2 (stereo not drawn)
inactive: [1] 99 % of control | [2] 99 % of control | [3] 96 % of control

CCCCOC(=O)c1ccc(NC(=O)Nc2cc(C)ccc2C)cc1
inactive: [4] 96 % of control | [5] 94 % of control | dose: 200.0 mg/kg/injection, schedule: Q01DX009 (ip), vehicle: saline with Tween-80 91 % of control

COC1=CC(=O)C([C@@H]2COc3cc(O)ccc3C2)=CC1=O
inactive: dose: 3.75 mg/kg/injection, schedule: Q01DX009 (ip), vehicle: Klucel (hydroxypropylcellulose) (HPC) 95 % of control | dose: 7.5 mg/kg/injection, schedule: Q01DX009 (ip), vehicle: Klucel (hydroxypropylcellulose) (HPC) 99 % of control | dose: 15.0 mg/kg/injection, schedule: Q01DX009 (ip), vehicle: Klucel (hydroxypropylcellulose) (HPC) 95 % of control | dose: 30.0 mg/kg/injection, schedule: Q01DX009 (ip), vehicle: Klucel (hydroxypropylcellulose) (HPC) 98 % of control

O=c1/c(=C/c2ccccc2)sc2nc(-c3ccccc3)nn12
inactive: dose: 12.5 mg/kg/injection, schedule: Q01DX009 (ip), vehicle: Klucel (hydroxypropylcellulose) (HPC) 87 % of control | dose: 25.0 mg/kg/injection, schedule: Q01DX009 (ip), vehicle: Klucel (hydroxypropylcellulose) (HPC) 88 % of control | dose: 50.0 mg/kg/injection, schedule: Q01DX009 (ip), vehicle: Klucel (hydroxypropylcellulose) (HPC) 89 % of control and 91 % of control | dose: 100.0 mg/kg/injection, schedule: Q01DX009 (ip), vehicle: Klucel (hydroxypropylcellulose) (HPC) 107 % of control | dose: 200.0 mg/kg/injection, schedule: Q01DX009 (ip), vehicle: Klucel (hydroxypropylcellulose) (HPC) 107 % of control

CCc1nc2nc(C)cc(C)n2n1
inactive: dose: 25.0 mg/kg/injection, schedule: Q01DX009 (ip), vehicle: saline with Tween-80 100 % of control | [4] 97 % of control | [5] 103 % of control

CCSC(C(OC(C)=O)C(OC(C)=O)C(COC(C)=O)OC(C)=O)n1cnc2c(=S)nc[nH]c21 (stereo not drawn)
inactive: dose: 100.0 mg/kg/injection, schedule: Q01DX001 (ip), vehicle: saline with Tween-80 101 % of control | dose: 200.0 mg/kg/injection, schedule: Q01DX001 (ip), vehicle: saline with Tween-80 93 % of control | dose: 400.0 mg/kg/injection, schedule: Q01DX001 (ip), vehicle: saline with Tween-80 87 % of control

CC1(CN2CCCCC2)COc2c(Cl)cc(Cl)cc2C1=O (stereo not drawn)
inactive: [6] 94 % of control | [7] 94 % of control | [8] 86 % of control

COc1cc2c(cc1-c1coc3cc(O)ccc3c1=O)OCO2
inactive: dose: 1.1 mg/kg/injection, schedule: Q01DX005 (ip), vehicle: Klucel (hydroxypropylcellulose) (HPC) 90 % of control | dose: 2.13 mg/kg/injection, schedule: Q01DX005 (ip), vehicle: Klucel (hydroxypropylcellulose) (HPC) 86 % of control | dose: 4.25 mg/kg/injection, schedule: Q01DX005 (ip), vehicle: Klucel (hydroxypropylcellulose) (HPC) 92 % of control and 96 % of control | dose: 8.5 mg/kg/injection, schedule: Q01DX005 (ip), vehicle: Klucel (hydroxypropylcellulose) (HPC) 88 % of control and 94 % of control | dose: 68.0 mg/kg/injection, schedule: Q01DX005 (ip), vehicle: Klucel (hydroxypropylcellulose) (HPC) 86 % of control

COC(=O)c1ccc(COc2ccc([N+](=O)[O-])cc2Cl)cc1
inactive: [9] 100 % of control | [10] 104 % of control | [1] 105 % of control | [11] 104 % of control | [2] 105 % of control | [3] 103 % of control

COc1cc2c(cc1C/C=C/c1ccccc1)OCO2
inactive: [9] 105 % of control | [10] 109 % of control | [11] 112 % of control

C=CCCNC(=S)S
inactive: dose: 60.0 mg/kg/injection, schedule: Q01DX005 (ip), vehicle: saline 109 % of control | dose: 120.0 mg/kg/injection, schedule: Q01DX005 (ip), vehicle: saline 107 % of control | dose: 240.0 mg/kg/injection, schedule: Q01DX005 (ip), vehicle: saline 108 % of control

CCC[N+]1=C/c2ccccc2OC(=O)/C=C\1[O-]
inactive: [6] 101 % of control | [7] 99 % of control | [8] 100 % of control

Nc1nc(N)c2c(n1)CCC(C(=O)Nc1ccc(Cl)cc1)C2 (stereo not drawn)
inactive: [9] 94 % of control | [10] 96 % of control | [11] 96 % of control

[Cu+2].[NH-]C(CO)C(=O)O.[NH-]C(Cc1cnc[nH]1)C(=O)O (stereo not drawn)
inactive: dose: 6.25 mg/kg/injection, schedule: Q01DX009 (ip), vehicle: saline 97 % of control | dose: 25.0 mg/kg/injection, schedule: Q01DX009 (ip), vehicle: saline 114 % of control

CCOCC(=O)C1(O)Cc2c(O)c3c(c(O)c2C(O)C1)C(=O)c1c(OC)cccc1C3=O (stereo not drawn)
inactive: dose: 1.56 mg/kg/injection, schedule: Q01DX009 (ip), vehicle: other 101 % of control | dose: 3.13 mg/kg/injection, schedule: Q01DX009 (ip), vehicle: other 100 % of control | dose: 6.25 mg/kg/injection, schedule: Q01DX009 (ip), vehicle: other 100 % of control | dose: 12.5 mg/kg/injection, schedule: Q01DX009 (ip), vehicle: other 95 % of control | dose: 25.0 mg/kg/injection, schedule: Q01DX009 (ip), vehicle: other 103 % of control

O=C1OC(c2ccccc2)(c2ccccc2)c2cc3c(cc21)C(c1ccccc1)(c1ccccc1)OC3=O
inactive: dose: 100.0 mg/kg/injection, schedule: Q01DX001 (ip), vehicle: saline 93 % of control | dose: 200.0 mg/kg/injection, schedule: Q01DX001 (ip), vehicle: saline 93 % of control | dose: 400.0 mg/kg/injection, schedule: Q01DX001 (ip), vehicle: saline 92 % of control

COCC1OC1COC (stereo not drawn)
inactive: dose: 50.0 mg/kg/injection, schedule: Q01DX005 (ip), vehicle: saline 107 % of control | dose: 100.0 mg/kg/injection, schedule: Q01DX005 (ip), vehicle: saline 104 % of control | dose: 200.0 mg/kg/injection, schedule: Q01DX005 (ip), vehicle: saline 106 % of control

CC(C)C/C=N/N(C)C=O
inactive: dose: 100.0 mg/kg/injection, schedule: Q04DX002 (ip), vehicle: saline 100 % of control | dose: 200.0 mg/kg/injection, schedule: Q04DX002 (ip), vehicle: saline 100 % of control | dose: 400.0 mg/kg/injection, schedule: Q04DX002 (ip), vehicle: saline 103 % of control

Cc1ccccc1NC(=O)Nc1ccc(N(CCCl)CCCl)cc1
inactive: dose: 50.0 mg/kg/injection, schedule: Q01DX001 (ip), vehicle: Klucel (hydroxypropylcellulose) (HPC) 92 % of control | dose: 100.0 mg/kg/injection, schedule: Q01DX001 (ip), vehicle: Klucel (hydroxypropylcellulose) (HPC) 109 % of control | dose: 200.0 mg/kg/injection, schedule: Q01DX001 (ip), vehicle: Klucel (hydroxypropylcellulose) (HPC) 120 % of control

O=C1NC(=O)C2(CCCc3ccc(N(CCO)CCO)cc32)N1 (stereo not drawn)
inactive: dose: 50.0 mg/kg/injection, schedule: Q01DX009 (ip), vehicle: DMSO 106 % of control | dose: 100.0 mg/kg/injection, schedule: Q01DX009 (ip), vehicle: DMSO 103 % of control | dose: 200.0 mg/kg/injection, schedule: Q01DX009 (ip), vehicle: DMSO 106 % of control

CC1(C)NC1C(O)c1ccccc1 (stereo not drawn)
inactive: dose: 50.0 mg/kg/injection, schedule: Q01DX009 (ip), vehicle: saline 102 % of control | dose: 100.0 mg/kg/injection, schedule: Q01DX009 (ip), vehicle: saline 103 % of control | dose: 200.0 mg/kg/injection, schedule: Q01DX009 (ip), vehicle: saline 104 % of control

OC(/C=C/c1ccccc1)Cc1nc2ccccc2[nH]1 (stereo not drawn)
inactive: [6] 98 % of control | [7] 88 % of control

CNC1Cc2c[nH]c3cccc(c23)C12C=C(C)C(=O)O2 (stereo not drawn)
inactive: dose: 75.0 mg/kg/injection, schedule: Q01DX009 (ip), vehicle: saline with Tween-80 120 % of control and 115 % of control | dose: 150.0 mg/kg/injection, schedule: Q01DX009 (ip), vehicle: saline with Tween-80 120 % of control and 115 % of control | dose: 300.0 mg/kg/injection, schedule: Q01DX009 (ip), vehicle: saline with Tween-80 120 % of control

COc1ccc(C2COc3c(ccc(O)c3C)C2)cc1OC (stereo not drawn)
inactive: [6] 97 % of control | [7] 97 % of control | [8] 95 % of control

NCCn1[nH]c(=O)c2cnccc2c1=O
inactive: [6] 95 % of control | [7] 100 % of control | [8] 95 % of control

CC(C)c1ccc2nc3ccc(C(=O)NCCN(C)C)cn3c(=O)c2c1
inactive: dose: 60.0 mg/kg/injection, schedule: Q01DX005 (ip), vehicle: Klucel (hydroxypropylcellulose) (HPC) 105 % of control | dose: 120.0 mg/kg/injection, schedule: Q01DX005 (ip), vehicle: Klucel (hydroxypropylcellulose) (HPC) 101 % of control

COc1ccc(/C=C2/Oc3c(OC)c(OC)cc(OC)c3C2=O)cc1
inactive: [9] 102 % of control | [10] 98 % of control | [11] 98 % of control
